Reference: the NIST ThermoML archive (doi:10.1016/j.fluid.2018.10.006)
Several values for one entry are separate records, joined by “and”; a condition that tells them apart may be missing. Identical values can stand only once. Numbers after ± are expanded uncertainties.

Settings: Fluid (supercritical or subcritical phases), Coaxial cylinder method

CCCCCC [hexane]
thermal conductivity
Settings | 508.17 K | 508.92 K
900 kPa | – | 0.03769 ± 0.0019 W/m/K
1100 kPa | – | 0.03855 ± 0.002 W/m/K
1234 kPa | – | 0.03889 ± 0.002 W/m/K
1401 kPa | – | 0.03933 ± 0.002 W/m/K
1510 kPa | – | 0.03959 ± 0.002 W/m/K
1603 kPa | – | 0.03996 ± 0.0021 W/m/K
1710 kPa | – | 0.04032 ± 0.0021 W/m/K
1806 kPa | – | 0.0407 ± 0.0021 W/m/K
1908 kPa | – | 0.04118 ± 0.0021 W/m/K
2006 kPa | – | 0.04167 ± 0.0021 W/m/K
2111 kPa | – | 0.04248 ± 0.0022 W/m/K
2210 kPa | – | 0.043 ± 0.0022 W/m/K
2300 kPa | – | 0.04353 ± 0.0022 W/m/K
2409 kPa | – | 0.04463 ± 0.0022 W/m/K
2509 kPa | – | 0.04579 ± 0.0023 W/m/K
2600 kPa | – | 0.04701 ± 0.0023 W/m/K
2650 kPa | – | 0.04777 ± 0.0024 W/m/K
2726 kPa | – | 0.0491 ± 0.0024 W/m/K
2744 kPa | – | 0.04937 ± 0.0024 W/m/K
2752 kPa | – | 0.04965 ± 0.0024 W/m/K
2763 kPa | – | 0.04993 ± 0.0025 W/m/K
2847 kPa | – | 0.05261 ± 0.0026 W/m/K
2898 kPa | – | 0.05429 ± 0.0027 W/m/K
2902 kPa | – | 0.05464 ± 0.0027 W/m/K
2927 kPa | – | 0.05568 ± 0.0027 W/m/K
2949 kPa | 0.0646 ± 0.0032 W/m/K | –
2953 kPa | 0.06509 ± 0.0032 W/m/K | –
2955 kPa | – | 0.05752 ± 0.0028 W/m/K
2956 kPa | 0.06509 ± 0.0032 W/m/K | –
2963 kPa | 0.06603 ± 0.0033 W/m/K | –
2966 kPa | 0.06628 ± 0.0033 W/m/K | –
2968 kPa | – | 0.05888 ± 0.0029 W/m/K
2970 kPa | 0.06681 ± 0.0034 W/m/K | –
2974 kPa | 0.06734 ± 0.0034 W/m/K | –
2975 kPa | – | 0.05948 ± 0.0029 W/m/K
2979 kPa | 0.06826 ± 0.0034 W/m/K | –
2982 kPa | 0.0687 ± 0.0035 W/m/K | –
2985 kPa | – | 0.06031 ± 0.003 W/m/K
2988 kPa | – | 0.06094 ± 0.003 W/m/K
2990 kPa | 0.07041 ± 0.0036 W/m/K | –
2991 kPa | 0.0707 ± 0.0037 W/m/K | –
2992 kPa | – | 0.06115 ± 0.003 W/m/K
2995 kPa | 0.07129 ± 0.0037 W/m/K | –
2998 kPa | 0.07219 ± 0.0039 W/m/K | –
2999 kPa | – | 0.06202 ± 0.0031 W/m/K
3002 kPa | 0.07324 ± 0.0041 W/m/K | –
3004 kPa | – | 0.06246 ± 0.0031 W/m/K
3007 kPa | 0.07436 ± 0.0044 W/m/K | –
3009 kPa | 0.07488 ± 0.0049 W/m/K | –
3011 kPa | – | 0.06336 ± 0.0032 W/m/K
3013 kPa | 0.0758 ± 0.0054 W/m/K | –
3015 kPa | 0.07648 ± 0.0048 W/m/K | 0.06429 ± 0.0032 W/m/K
3017 kPa | 0.07703 ± 0.0045 W/m/K | –
3019 kPa | – | 0.06477 ± 0.0033 W/m/K
3021 kPa | 0.07822 ± 0.0043 W/m/K | –
3022 kPa | 0.07848 ± 0.0043 W/m/K | –
3024 kPa | 0.0792 ± 0.0043 W/m/K | –
3025 kPa | – | 0.06574 ± 0.0033 W/m/K
3026 kPa | 0.07994 ± 0.0042 W/m/K | –
3028 kPa | – | 0.06624 ± 0.0034 W/m/K
3029 kPa | 0.08069 ± 0.0042 W/m/K | –
3031 kPa | 0.08185 ± 0.0042 W/m/K | –
3033 kPa | 0.08287 ± 0.0043 W/m/K | 0.06751 ± 0.0035 W/m/K
3034 kPa | 0.08344 ± 0.0043 W/m/K | –
3035 kPa | – | 0.06804 ± 0.0035 W/m/K
3036 kPa | 0.08467 ± 0.0043 W/m/K | –
3037 kPa | 0.08467 ± 0.0043 W/m/K | –
3038 kPa | 0.08604 ± 0.0044 W/m/K | –
3039 kPa | 0.08566 ± 0.0043 W/m/K | 0.06857 ± 0.0036 W/m/K
3040 kPa | 0.08735 ± 0.0044 W/m/K | –
3041 kPa | 0.08647 ± 0.0043 W/m/K and 0.08824 ± 0.0044 W/m/K | –
3042 kPa | 0.09103 ± 0.0046 W/m/K | 0.06938 ± 0.0037 W/m/K
3043 kPa | 0.09201 ± 0.0046 W/m/K | –
3044 kPa | – | 0.06994 ± 0.0038 W/m/K
3045 kPa | 0.09401 ± 0.0047 W/m/K | –
3046 kPa | 0.09504 ± 0.0047 W/m/K | –
3047 kPa | 0.0961 ± 0.0047 W/m/K | –
3048 kPa | 0.09828 ± 0.0049 W/m/K | 0.07107 ± 0.004 W/m/K
3049 kPa | 0.09941 ± 0.0049 W/m/K | –
3050 kPa | 0.1017 ± 0.005 W/m/K | 0.0715 ± 0.0041 W/m/K
3051 kPa | 0.1048 ± 0.0052 W/m/K | –
3052 kPa | 0.1081 ± 0.0053 W/m/K | 0.07223 ± 0.0043 W/m/K
3053 kPa | 0.1119 ± 0.0056 W/m/K | –
3054 kPa | 0.1168 ± 0.0058 W/m/K | –
3055 kPa | 0.1226 ± 0.0061 W/m/K | 0.07344 ± 0.0049 W/m/K
3056 kPa | 0.1319 ± 0.0066 W/m/K | 0.07375 ± 0.0052 W/m/K
3057 kPa | 0.1487 ± 0.0076 W/m/K | –
3058 kPa | 0.1625 ± 0.0084 W/m/K | –
3059 kPa | 0.1438 ± 0.0073 W/m/K | 0.07469 ± 0.0057 W/m/K
3060 kPa | 0.1319 ± 0.0065 W/m/K | 0.07532 ± 0.0053 W/m/K
3061 kPa | 0.1231 ± 0.006 W/m/K | –
3062 kPa | 0.1168 ± 0.0056 W/m/K | –
3063 kPa | 0.1123 ± 0.0054 W/m/K | 0.0763 ± 0.0045 W/m/K
3064 kPa | 0.1088 ± 0.0052 W/m/K | –
3065 kPa | 0.106 ± 0.005 W/m/K | 0.07747 ± 0.0043 W/m/K
3066 kPa | 0.1039 ± 0.0049 W/m/K | –
3067 kPa | 0.1024 ± 0.0048 W/m/K | 0.07868 ± 0.0042 W/m/K
3068 kPa | 0.1006 ± 0.0047 W/m/K | 0.07903 ± 0.0042 W/m/K
3069 kPa | 0.09945 ± 0.0046 W/m/K | 0.0801 ± 0.0042 W/m/K
3070 kPa | 0.09832 ± 0.0045 W/m/K | 0.08047 ± 0.0042 W/m/K
3071 kPa | 0.09743 ± 0.0045 W/m/K | 0.08084 ± 0.0042 W/m/K
3073 kPa | 0.09613 ± 0.0044 W/m/K | 0.08254 ± 0.0042 W/m/K
3074 kPa | 0.09508 ± 0.0043 W/m/K | 0.08353 ± 0.0042 W/m/K
3075 kPa | 0.09456 ± 0.0043 W/m/K | 0.08412 ± 0.0042 W/m/K
3076 kPa | 0.09404 ± 0.0043 W/m/K | 0.08532 ± 0.0042 W/m/K
3077 kPa | 0.09323 ± 0.0043 W/m/K | 0.08593 ± 0.0042 W/m/K
3078 kPa | 0.09287 ± 0.0042 W/m/K | 0.08697 ± 0.0043 W/m/K
3079 kPa | 0.09237 ± 0.0042 W/m/K | 0.08803 ± 0.0043 W/m/K
3080 kPa | 0.09171 ± 0.0042 W/m/K | 0.08934 ± 0.0043 W/m/K
3081 kPa | 0.09127 ± 0.0042 W/m/K | 0.09069 ± 0.0044 W/m/K
3082 kPa | 0.09079 ± 0.0043 W/m/K | 0.09234 ± 0.0044 W/m/K
3083 kPa | 0.09032 ± 0.0043 W/m/K | 0.09384 ± 0.0045 W/m/K
3084 kPa | 0.08985 ± 0.0043 W/m/K | 0.09568 ± 0.0046 W/m/K
3085 kPa | 0.08955 ± 0.0044 W/m/K | 0.0977 ± 0.0046 W/m/K
3086 kPa | 0.0889 ± 0.0045 W/m/K | 0.1001 ± 0.0047 W/m/K
3087 kPa | 0.08845 ± 0.0047 W/m/K | 0.103 ± 0.0048 W/m/K
3088 kPa | 0.088 ± 0.0048 W/m/K | –
3089 kPa | 0.08755 ± 0.005 W/m/K | –
3090 kPa | 0.08755 ± 0.0051 W/m/K | –
3091 kPa | 0.08711 ± 0.005 W/m/K | –
3092 kPa | 0.08667 ± 0.005 W/m/K | –
3094 kPa | 0.08581 ± 0.0046 W/m/K | –
3095 kPa | 0.08539 ± 0.0044 W/m/K | –
3100 kPa | 0.08334 ± 0.0039 W/m/K | –
3105 kPa | 0.08267 ± 0.004 W/m/K | –
3108 kPa | 0.08217 ± 0.0038 W/m/K | –
3115 kPa | 0.08124 ± 0.0037 W/m/K | –
3120 kPa | 0.08025 ± 0.0037 W/m/K | –
3125 kPa | 0.08032 ± 0.0037 W/m/K | –
3130 kPa | 0.08032 ± 0.0037 W/m/K | –
3132 kPa | 0.08032 ± 0.0037 W/m/K | –
